From patent US6211209A, “Method of inhibiting connective tissue degradation” (Warner-Lambert Company, priority 1998, dated 2001)

Test system: cartilage
Assay: Rabbit model of IL-1α-induced cartilage degradation (intra-articular injection, knee joint)
Format: in vivo
Settings: for Proteoglycan Loss (% Control): 24 hours (IL-1α alone 35.40 ± 3.12)
Procedure: Rabbits (3.0-3.2 kg) were obtained from Hazelton (Denver, Pa.); Xylazine from W. A. Butler (Columbus, Ohio); Rompun from Miles Inc, (Shawnee Mission, Kans.); Ketamine HCl from Aveco (Fort Dodge Labs, Fort Dodge, Iowa); Pentobarbital from Western Medical Supply (Acadia, Calif.); human recombinant Interleukin-1α (IL-1α) from Genzyme (Cambridge, Mass.); Cetus Pro/Pette (Perkin Elmer, Norwalk, Conn.); Biomek 1000 (Beckman, Fullerton, Calif.).
The assay was performed in two phases. The hind leg knee joints were first injected with IL-1α and compound for 24 hours. The proteoglycan content of cartilage was then quantified by measuring chondroitin sulfate present using the 1,9-Dimethylmethylene Blue Assay (DMB).
Each treatment was done in quadruplicate, necessitating twelve animals per study. Rabbits were anesthetized by injecting intramuscularly 0.9 mL Rompun combined with 1.8 mL Ketoset. Hind leg knee area was shaved and wiped with 70% EtOH and both drug and IL-1α were injected intra-articulary (27-gauge needle) in succession.
0.5 mL DMSO/Saline and 0.5 mL PBS/0.2% FCS.
0.5 mL DMSO/Saline containing 8 μg Compound 1 and 2500 U/0.5 mL IL-1α.
0.5 mL DMSO/Saline containing 8 μg Compound 1 and 0.5 mL PBS/0.2% FCS.
0.5 mL DMSO/Saline containing 24 μg Compound 1 and 0.5 mL IL-1α.
0.5 mL DMSO/Saline containing 24 μg Compound 1 and 0.5 mL PBS/0.2% FCS. […]
The ability of a compound to inhibit proteoglycan release from cartilage pieces was quantified by measuring chondroitin sulfate. […] This color change was measured using a Titertek Multiscan MCC 340 plate reader at 540 nm. […] The DMB assay was performed by adding 10 μL of samples to 290 μL DMB (16 mg dye/L of 0.1 M formate buffer, pH 3.5, containing 5 mL ethanol) and reading at 540 nm. Once the experiment was completed the total amount of proteoglycan remaining in the cartilage pieces was determined by digesting cartilage samples with papain and then performing 1,9 DMB assay on the digest. […] Digested material was diluted (1:5, 1:10, 1:20) and chondroitin sulfate values determined using the 1,9 DMB assay.

S=c1[nH]nc(-c2ccccc2Nc2ccccc2)o1 [Compound 1, 5-(2-Phenylamino-phenyl)-3H-[1,3,4]oxadiazole-2-thione]
Proteoglycan Loss (% Control) (8 μg/jt with IL-1α): 18.78 ± 10.98 % Control
Proteoglycan Loss (% Control) (24 μg/jt with IL-1α, * significantly different from IL-1α alone): 9.35 ± 7.26 % Control
inhibiting cartilage degradation (8 and 24 μg/joint, 24 hours): effective in inhibiting cartilage degradation in a dose-dependent manner
